Article PMC5972561, “Grapevine fatty acid hydroperoxide lyase generates actin-disrupting volatiles and promotes defence-related cell death” (Journal of Experimental Botany, 2018)

Target: T1, VvHPL1 (VvMTh-HPL1; HPL1) (Vitis vinifera, UniProt F6HID6)
T1 sequence (F6HID6 1-487): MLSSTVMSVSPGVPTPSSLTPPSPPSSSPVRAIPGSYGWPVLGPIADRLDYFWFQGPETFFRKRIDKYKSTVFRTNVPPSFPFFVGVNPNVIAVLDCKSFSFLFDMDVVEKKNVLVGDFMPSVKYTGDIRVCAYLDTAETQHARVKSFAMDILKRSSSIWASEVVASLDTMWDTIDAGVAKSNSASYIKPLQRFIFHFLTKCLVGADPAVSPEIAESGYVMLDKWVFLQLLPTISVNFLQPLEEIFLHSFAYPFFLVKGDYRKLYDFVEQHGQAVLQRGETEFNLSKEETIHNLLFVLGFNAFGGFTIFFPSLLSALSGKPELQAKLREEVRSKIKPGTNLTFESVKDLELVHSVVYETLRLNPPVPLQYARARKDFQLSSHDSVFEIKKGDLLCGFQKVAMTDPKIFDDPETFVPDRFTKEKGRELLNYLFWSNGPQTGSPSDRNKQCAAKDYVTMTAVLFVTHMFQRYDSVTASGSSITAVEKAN
Test: SBSE TD-GC-MS of volatile products
Format: biochemical
Conditions: 40 µM substrate, 50 mM sodium phosphate pH 7.0, ambient temperature, 2 h; enzyme partially purified

Structure (SMILES)	SBSE TD-GC-MS of volatile products
CCCCC[C@@H](/C=C/C=C\CCCCCCCC(=O)O)OO [13(S)-hydroperoxy-9(Z), 11(E)-octadecadienoic acid]	The major product from the conversion of 13-HPOD was hexanal
CC/C=C\C[C@@H](/C=C/C=C\CCCCCCCC(=O)O)OO [13(S)-hydroperoxy-9(Z),11(E), 15(Z)-octadecatrienoic acid]	13-HPOT as substrate yielded cis-3-hexenal and trans-2-hexenal
